Test system: TWNT-1 (CVCL J364) hepatic stella cells
Settings: incubation 2 days
From the text: In the case of this assay kit, it is necessary to note that, although the sorafenib@siRNP can be dissolved in phosphate-buffered saline (PBS), free sorafenib is required to be dissolved in dimethylsulfoxide (DMSO).

CNC(=O)c1cc(Oc2ccc(NC(=O)Nc3ccc(Cl)c(C(F)(F)F)c3)cc2)ccn1 [sorafenib]
inhibition of proliferation of TWNT-1: inhibits the proliferation of TWNT-1
